# Values of other authors as cited in patent US7700560B2 (University of Maryland, Baltimore County, priority 2003, dated 2010).
# Key:
# [1] = tested on: DMS114 lung and DU145 prostate xenografts; conditions: dicyclopentyl diester; cited from earlier work
# [2] = tested on: lung tumor cell lines NCI-H460, NCI-H226, A549, NCI-H23, DMS273, DMS114, NCI-H522; conditions: dicyclopentyl diester; cited from earlier work
compound,measurement,setting,value
NC(CCC(=O)NC(CSCc1ccc(Br)cc1)C(=O)NCC(=O)OC1CCCC1)C(=O)OC1CCCC1 (centres unmarked),inhibition of DMS144 and human prostate DU145 xenografts in nude mice,[1],effectively inhibited
same,inhibition of lung tumor cell lines in vitro,[2],effectively inhibited
